Data: patent US12570613B2, “Imidazoquinoline or benzoindazolone compound and intermediate for preparing same” (LMITO THERAPEUTICS INC., priority 2020, dated 2026)

Biological target: NQO1 protein (Homo sapiens, UniProt P15559)
Assay: In vitro NQO1 enzyme activity assay (cytochrome C reduction, absorbance at 550 nm)
Assay type: biochemical
Conditions: NQO1 2 ng
Method: In order to evaluate the activity of the synthesized compound in NQO1, the experiments were performed as follows:
The synthesized compound was dissolved in DMSO to make a 10 mM stock solution, which was further diluted with DMSO to 250 μM so as to prepare a working solution. For experimental groups, the working solution of the compound was added to an enzyme reaction solution in which 50 μL of 1.54 mM Cytochrome C solution was added to 900 μL of 50 mM Tris-HCl (pH7.5) containing 0.14% BSA. For negative control groups, DMSO not containing the compound of the invention was added to the enzyme reaction solution as above. For each experimental and control group, 20 μL of 100 ng/mL NQO1 protein was added, and then 10 μL of 20 mM NADH was added to bring up the total volume to 1 mL. The change of absorbance was measured at 550 nm for 10 minutes using 1 mL cuvette. The kinetics of reaction was measured by the increase of absorbance as the cytochrome C was reduced at 550 nm over 10 minutes. The activity of NQO1 was measured by the amount of cytochrome C that is being reduced (nmol cytochrome C that was reduced/min/ug NQO1 protein). • Absorption coefficient of Cytochrome C: 21.1 (μmol/mL)^−1cm^−1 • BSA: Bovine Serum Albumin • […]: Tris(hydroxymethyl)aminomethane hydrochloride (buffer solution) • Equipment=Cary 100 UV-Vis Spectrophotometer • The results are shown in Tables 1 to 8.

Sequence of NQO1 protein (P15559 whole entry, species assumed): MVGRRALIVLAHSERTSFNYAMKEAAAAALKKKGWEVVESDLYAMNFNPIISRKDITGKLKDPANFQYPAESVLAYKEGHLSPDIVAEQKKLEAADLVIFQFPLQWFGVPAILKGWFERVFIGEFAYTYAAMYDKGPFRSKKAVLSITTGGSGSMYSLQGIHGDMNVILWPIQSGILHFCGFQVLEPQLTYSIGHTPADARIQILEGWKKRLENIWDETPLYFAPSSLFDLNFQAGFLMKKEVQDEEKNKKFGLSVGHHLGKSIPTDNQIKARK

Cc1nn(Cc2ccccc2)c2c1C(=O)C(=O)c1ccccc1-2 [Compound 63, 1-Benzyl-3-methyl-1H-benzo[g]indazol-4,5-dione]
NQO1 activity assay Cytochrome C reduced/min/μg NQO1 protein (50 nM Compound (Table 2)): 1567 nmol cytochrome C that was reduced/min/ug NQO1 protein

Cc1c2c(nn1S(=O)(=O)c1cccc3cccnc13)-c1ccccc1C(=O)C2=O [Compound 60, 3-Methyl-2-(quinolin-8-ylsulfonyl)-2H-benzo[g]indazol-4,5-dione]
NQO1 activity assay Cytochrome C reduced/min/μg NQO1 protein (50 nM Compound (Table 8)): 2692 nmol cytochrome C that was reduced/min/ug NQO1 protein

Cc1nn(-c2ccccc2)c2c1C(=O)C(=O)c1ccccc1-2 [Compound 9, 3-Methyl-1-phenyl-1H-benzo[g]indazol-4,5-dione]
NQO1 activity assay Cytochrome C reduced/min/μg NQO1 protein (10 nM Compound (Table 1)): 932 nmol cytochrome C that was reduced/min/ug NQO1 protein | NQO1 activity assay Cytochrome C reduced/min/μg NQO1 protein (50 nM Compound (Table 2)): 2093 nmol cytochrome C that was reduced/min/ug NQO1 protein | NQO1 activity assay Cytochrome C reduced/min/μg NQO1 protein (50 nM Compound (Table 3)): 3089 nmol cytochrome C that was reduced/min/ug NQO1 protein | NQO1 activity assay Cytochrome C reduced/min/μg NQO1 protein (50 nM Compound (Table 4)): 3864 nmol cytochrome C that was reduced/min/ug NQO1 protein | NQO1 activity assay Cytochrome C reduced/min/μg NQO1 protein (50 nM Compound (Table 5)): 3091 nmol cytochrome C that was reduced/min/ug NQO1 protein | NQO1 activity assay Cytochrome C reduced/min/μg NQO1 protein (50 nM Compound (Table 6)): 2885 nmol cytochrome C that was reduced/min/ug NQO1 protein | NQO1 activity assay Cytochrome C reduced/min/μg NQO1 protein (50 nM Compound (Table 7)): 2892 nmol cytochrome C that was reduced/min/ug NQO1 protein | NQO1 activity assay Cytochrome C reduced/min/μg NQO1 protein (50 nM Compound (Table 8)): 2709 nmol cytochrome C that was reduced/min/ug NQO1 protein

Cc1nn(-c2ccc(Cl)cc2Cl)c2c1C(=O)C(=O)c1ccccc1-2 [Compound 28, 1-(2,4-Dichlorophenyl)-3-methyl-1H-benzo[g]indazol-4,5-dione]
NQO1 activity assay Cytochrome C reduced/min/μg NQO1 protein (10 nM Compound (Table 1)): 745 nmol cytochrome C that was reduced/min/ug NQO1 protein

Cc1nn(-c2cncc(Cl)c2)c2c1C(=O)C(=O)c1ccccc1-2 [Compound 39, 1-(5-Chloropyridin-3-yl)-3-methyl-1H-benzo[g]indazol-4,5-dione]
NQO1 activity assay Cytochrome C reduced/min/μg NQO1 protein (50 nM Compound (Table 4)): 3285 nmol cytochrome C that was reduced/min/ug NQO1 protein

Cc1nn(-c2ccc(F)cc2F)c2c1C(=O)C(=O)c1ccccc1-2 [Compound 32, 1-(2,4-Difluorophenyl)-3-methyl-1H-benzo[g]indazol-4,5-dione]
NQO1 activity assay Cytochrome C reduced/min/μg NQO1 protein (10 nM Compound (Table 1)): 839 nmol cytochrome C that was reduced/min/ug NQO1 protein

Cc1c2c(nn1S(=O)(=O)c1cccnc1)-c1ccccc1C(=O)C2=O [Compound 48, 3-Methyl-2-(pyridin-3-ylsulfonyl)-2H-benzo[g]indazol-4,5-dione]
NQO1 activity assay Cytochrome C reduced/min/μg NQO1 protein (50 nM Compound (Table 5)): 1749 nmol cytochrome C that was reduced/min/ug NQO1 protein

Cc1c2c(nn1S(=O)(=O)c1ccc(C#N)cc1)-c1ccccc1C(=O)C2=O [Compound 55, 4-(3-Methyl-4,5-dioxo-4,5-dihydro-2H-benzo[g]indazol-2-ylsulfonyl)benzonitrile]
NQO1 activity assay Cytochrome C reduced/min/μg NQO1 protein (50 nM Compound (Table 7)): 1892 nmol cytochrome C that was reduced/min/ug NQO1 protein

CN(C)Cc1nn(-c2ccccc2)c2c1C(=O)C(=O)c1ccccc1-2 [Compound 17, 3-((Dimethylamino)methyl)-1-phenyl-1H-benzo[g]indazol-4,5-dione]
NQO1 activity assay Cytochrome C reduced/min/μg NQO1 protein (10 nM Compound (Table 1)): 254 nmol cytochrome C that was reduced/min/ug NQO1 protein

Cc1c2c(nn1S(=O)(=O)C1CC1)-c1ccccc1C(=O)C2=O [Compound 53, 2-(Cyclopropylsulfonyl)-3-methyl-2H-benzo[g]indazol-4,5-dione]
NQO1 activity assay Cytochrome C reduced/min/μg NQO1 protein (50 nM Compound (Table 7)): 1549 nmol cytochrome C that was reduced/min/ug NQO1 protein
